Laboratory results: patent US20240165097A1, “PHARMACEUTICAL COMPOSITION FOR THE TREATMENT OF ALZHEIMER'S DISEASE OR DEMENTIA” (Heptares Therapeutics Limited, priority 2021, published 2024)
Where two headings read alike, the source gives them in different places.

How the values were obtained:
[1] = Example C: HTL0018318 plasma and urine pharmacokinetics; format: in vivo, human; details: for CL renal / Cmax / AUC / AUC(0-inf) / half-life / Tmax: human, oral; for Cmax / AUC / AUC(0-inf) / half-life / Tmax: plasma; for AUC: Tau = 24 hrs, read-out: AUC0-tau (mean); for AUC(0-inf): read-out: AUC0-inf (mean)
Procedure: On the days between, only pre-dose PK samples were taken. The last PK blood sample was taken between 7-14 days after the last HTL0018318 dose (Table 7).
For these calculations, data of 15 mg and 25 mg HTL0018318 were grouped together. […]
All PK analyses were performed in Phoenix 64 build 6.4.0.768 using WinNonlin 6.4. Statistical analysis was performed in R version 3.3.1 (2016-06-21) Copyright (C) 2016 The R Foundation for Statistical Computing (Platform: x86_64-w64-mingw32/x64 64-bit).

[2] = system: patients with mild-to-moderate AD; assay: Example D: twelve-item neuropsychiatric inventory (NPI-12); format: in vivo, human
Procedure: Exploratory PD effects of HTL0018318 were examined via both behavioural (Cogstate neuropsychological test battery [NTB]) tests of cognitive function and electrophysiological (electroencephalogram [EEG] and evoked response potentials [ERPs]) biomarkers. Further details of each biomarker/test and outcome variables are provided below. Twelve-item neuropsychiatric inventory (NPI-12) scores were used to evaluate neuropsychiatric symptoms.
Statistical evaluation was performed using Statistical analysis software (SAS®, SAS Institute, Cary, NC). Changes from baseline in vital signs were analysed using a mixed model for repeated measures with fixed effects for baseline, treatment, time-point and treatment by time-point interaction. The exploratory PD endpoints were analysed using an analysis of covariance with change from baseline as the dependent variable, and baseline and treatment as covariates. The least square means (LSM) for each dose (and difference from placebo) are presented with the 90% CI, P-value, and ES. ES was calculated as the LSM difference from placebo divided by the pooled standard deviation. PD data were considered clinically meaningful when P-values were <0.10 and ESs were >0.4 (ie, moderate to large ES).

[3] = in humans; cited from earlier work
[4] = fifth dose, 15 and 25 mg grouped
[5] = first dose, 15 and 25 mg grouped

CCOC(=O)N1C2CCC1CC(N1CCC3(CC1)CNC(=O)C3)C2 (stereo not drawn) [HTL0018318, ethyl 3-(3-oxo-2,8-diazaspiro[4.5]dec-8-yl)-8-azabicyclo[3.2.1]octane-8-carboxylate]
Ae (mean) ([1]; 15 mg + DPZ, 1st dose): 39.9% | CL/F (mean) ([1]; 15 mg + DPZ, 1st dose): 14.7 L/h | Ae (mean) ([1]; 15 mg + DPZ, 5th dose): 51.5% | CL/F (mean) ([1]; 15 mg + DPZ, 5th dose): 14.0 L/h | mean ratio AUC0-tau fifth dose / AUC0-inf first dose ([1]; 15 mg alone): 1.04 | mean ratio AUC0-tau fifth dose / AUC0-tau first dose ([1]; 15 mg alone): 1.27 | Ae (mean) ([1]; 15 mg only, 1st dose): 39.2% | CL/F (mean) ([1]; 15 mg only, 1st dose): 14.2 L/h | Ae (mean) ([1]; 15 mg only, 5th dose): 47.9% | CL/F (mean) ([1]; 15 mg only, 5th dose): 14.0 L/h | mean ratio AUC0-tau fifth dose / AUC0-inf first dose ([1]; 15 mg, donepezil co-dosed): 1.04 | mean ratio AUC0-tau fifth dose / AUC0-tau first dose ([1]; 15 mg, donepezil co-dosed): 1.23 | Ae (mean) ([1]; 25 mg + DPZ, 1st dose): 41.1% | CL/F (mean) ([1]; 25 mg + DPZ, 1st dose): 17.0 L/h | Ae (mean) ([1]; 25 mg + DPZ, 5th dose): 47.7% | CL/F (mean) ([1]; 25 mg + DPZ, 5th dose): 16.0 L/h | mean ratio AUC0-tau fifth dose / AUC0-inf first dose ([1]; 25 mg alone): 1.06 | mean ratio AUC0-tau fifth dose / AUC0-tau first dose ([1]; 25 mg alone): 1.23 | Ae (mean) ([1]; 25 mg only, 1st dose): 32.6% | CL/F (mean) ([1]; 25 mg only, 1st dose): 17.6 L/h | Ae (mean) ([1]; 25 mg only, 5th dose): 44.1% | CL/F (mean) ([1]; 25 mg only, 5th dose): 16.6 L/h | mean ratio AUC0-tau fifth dose / AUC0-inf first dose ([1]; 25 mg, donepezil co-dosed): 1.03 | mean ratio AUC0-tau fifth dose / AUC0-tau first dose ([1]; 25 mg, donepezil co-dosed): 1.21 | pharmacokinetic steady-state reached ([1]; daily dosing 15 or 25 mg): on or before the fifth daily dose | ratio of AUC0-tau, in combination with donepezil vs alone [1, 4]: 1.00 | ratio of Cmax, in combination with donepezil vs alone [1, 4]: 1.04 | ratio of Cmin, in combination with donepezil vs alone [1, 4]: 0.911 | ratio of Tmax, in combination with donepezil vs alone [1, 4]: 0.974 | ratio of AUC0-24, in combination with donepezil vs alone [1, 5]: 1.02 | ratio of Cmax, in combination with donepezil vs alone [1, 5]: 1.05 | ratio of Tmax, in combination with donepezil vs alone [1, 5]: 1.01 | CL renal ([1]; plasma and urine, 25 mg + DPZ, 1st dose): 129 mL/min | CL renal ([1]; plasma and urine, 25 mg + DPZ, 5th dose): 113 mL/min | CL renal ([1]; plasma and urine, 25 mg, 25 mg only, 1st dose): 104 mL/min | CL renal ([1]; plasma and urine, 25 mg, 25 mg only, 5th dose): 109 mL/min | Cmax ([1]; 15 mg + DPZ, 1st dose): 91.2 ng/mL | AUC ([1]; 15 mg + DPZ, 1st dose): 932 ng·h/mL | AUC(0-inf) ([1]; 15 mg + DPZ, 1st dose): 1120 ng·h/mL | half-life ([1]; 15 mg + DPZ, 1st dose, read-out: Half-life (mean) (converted)): 8.97 h | Tmax ([1]; 15 mg + DPZ, 1st dose, read-out: Tmax (median)): 2.5 h | Cmax ([1]; 15 mg + DPZ, 5th dose): 109 ng/mL | AUC ([1]; 15 mg + DPZ, 5th dose): 1150 ng·h/mL | half-life ([1]; 15 mg + DPZ, 5th dose, read-out: Half-life (mean) (converted)): 11.6 h | Tmax ([1]; 15 mg + DPZ, 5th dose, read-out: Tmax (median)): 1.74 h | Cmax ([1]; 15 mg, 15 mg only, 1st dose): 83.4 ng/mL | AUC ([1]; 15 mg, 15 mg only, 1st dose): 919 ng·h/mL | AUC(0-inf) ([1]; 15 mg, 15 mg only, 1st dose): 1130 ng·h/mL | half-life ([1]; 15 mg, 15 mg only, 1st dose, read-out: Half-life (mean) (converted)): 9.25 h | Tmax ([1]; 15 mg, 15 mg only, 1st dose, read-out: Tmax (median)): 2 h | Cmax ([1]; 15 mg, 15 mg only, 5th dose): 103 ng/mL | AUC ([1]; 15 mg, 15 mg only, 5th dose): 1180 ng·h/mL | half-life ([1]; 15 mg, 15 mg only, 5th dose, read-out: Half-life (mean) (converted)): 13.8 h | Tmax ([1]; 15 mg, 15 mg only, 5th dose, read-out: Tmax (median)): 2.05 h | Cmax ([1]; 25 mg + DPZ, 1st dose): 139 ng/mL | AUC ([1]; 25 mg + DPZ, 1st dose): 1410 ng·h/mL | AUC(0-inf) ([1]; 25 mg + DPZ, 1st dose): 1710 ng·h/mL | half-life ([1]; 25 mg + DPZ, 1st dose, read-out: Half-life (mean) (converted)): 8.73 h | Tmax ([1]; 25 mg + DPZ, 1st dose, read-out: Tmax (median)): 1.76 h | Cmax ([1]; 25 mg + DPZ, 5th dose): 171 ng/mL | AUC ([1]; 25 mg + DPZ, 5th dose): 1740 ng·h/mL | half-life ([1]; 25 mg + DPZ, 5th dose, read-out: Half-life (mean) (converted)): 10.7 h | Tmax ([1]; 25 mg + DPZ, 5th dose, read-out: Tmax (median)): 2 h | Cmax ([1]; 25 mg, 25 mg only, 1st dose): 135 ng/mL | AUC ([1]; 25 mg, 25 mg only, 1st dose): 1370 ng·h/mL | AUC(0-inf) ([1]; 25 mg, 25 mg only, 1st dose): 1650 ng·h/mL | half-life ([1]; 25 mg, 25 mg only, 1st dose, read-out: Half-life (mean) (converted)): 8.52 h | Tmax ([1]; 25 mg, 25 mg only, 1st dose, read-out: Tmax (median)): 1.75 h | Cmax ([1]; 25 mg, 25 mg only, 5th dose): 162 ng/mL | AUC ([1]; 25 mg, 25 mg only, 5th dose): 1710 ng·h/mL | half-life ([1]; 25 mg, 25 mg only, 5th dose, read-out: Half-life (mean) (converted)): 13.4 h | Tmax ([1]; 25 mg, 25 mg only, 5th dose, read-out: Tmax (median)): 1.76 h | Tmax ([1]; 25 mg, 15 and 25 mg, with and without donepezil, read-out: Tmax, range over groups): 1.74 to 2.5 h | half-life ([1]; 25 mg, 15 and 25 mg, with and without donepezil, read-out: half-life following the fifth dose, range over groups): 10.7 to 13.8 h | CL renal ([1]; urine and plasma, 15 mg + DPZ, 1st dose): 109 mL/min | CL renal ([1]; urine and plasma, 15 mg + DPZ, 5th dose): 109 mL/min | CL renal ([1]; urine and plasma, 15 mg, 15 mg only, 1st dose): 109 mL/min | CL renal ([1]; urine and plasma, 15 mg, 15 mg only, 5th dose): 104 mL/min | NPI-12 total score, ES ([2]; 5 mg): -0.73 | NPI-12 total score, LSM difference from placebo ([2]; 5 mg): −1.79 | NPI-12 total score, ES ([2]; 15 mg): −0.54 | NPI-12 total score, ES ([2]; 25 mg): −0.53 | Tmax [3]: 1 to 2 h | half-life [3]: approximately 16 hours
